# Values quoted from earlier work, collected in US20170348285A1, “TREATMENT OF DRY EYE DISEASE WITH PARASYMPATHETIC & ANTI-SYMPATHETIC AGENTS” (priority 2016, published 2017).
# Key:
# [1] = topical formulation
# [2] = topical 0.05%, treatment for two months
# [3] = systemic administration
structure (smiles),measurement,setting,value
CC[C@@H]1C(=O)OC[C@@H]1Cc1cncn1C [pilocarpine],spasms of accommodation,[1],cause spasms of accommodation
same,change in pupil size,[2],without any change in pupil size
same,tear production,[2],stimulate tear production
same,efficacy as treatment of dry eye disease,[3],effective systemic treatment of dry eye disease
CCOc1ccccc1OCCN[C@H](C)Cc1ccc(OC)c(S(N)(=O)=O)c1 [tamsulosin],floppy iris syndrome,during eye surgery,can cause the floppy iris syndrome
same,retrograde ejaculation,in vivo,can cause retrograde ejaculation
